Measurements: patent US20060276440A1, “Treatment of inflammatory disorders” (priority 2005, published 2006)
“Also recorded” adds a separate entry of the source.

Experiments:
MMP-13 mRNA = MMP-13 mRNA by Taqman in OSM/IL-1-stimulated SW1353 cells; format: cell-based, human; details: FIG. 13A
Experimental: Total RNA was isolated using RNAzol™ B (TEL-TEST Inc., Friendswood, Tex.). SuperScript™ first-strand synthesis system (Invitrogen) was used for cDNA generation. All oligonucleotide primers and fluorescent-labeled TaqMan probes were from Applied Biosystems (Foster City, Calif.). Relative quantization of gene expression was performed using the MX3000p real-time PCR instrument (Stratagene, La Jolla, Calif.). PCR reactions for all samples were performed in triplicates using 50 ng of cDNA. To compensate for the variation in the total cDNA, all readouts were normalized to an endogenous control (18S ribosomal RNA). Thermocycler conditions comprised an initial holding at 50° C. for 2 min, then 95° C. for 10 min, followed by a 2-step TaqMan PCR program consisting of 95° C. for 15 seconds, and 60° C. for 60 seconds for 40 cycles. The relative changes in gene expression were quantified as described in Applied Biosystems User Bulletin NO. 2 (P/N 4303859).
The cellular and molecular mechanisms by which CA4 repressed pro-MMP-13 production, using SW1353 as the model system were investigated. […] The pathways that mediate OSM and IL-1 signal transduction were then examined. […]

CD3 = assay: GFP-reporter Jurkat T-cell line, anti-CD3 antibody-upregulated reporter; format: cell-based; details: at 20 nM; data not shown
[1] = Plasma concentration of CA4 from osmotic pump by LC/MS; format: in vivo, mouse; details: 33 mg/ml dose by the pump (16 mg/kg/day), day 3 and 7
Experimental: (§1) CA4 at 50, 33, and 0 (vehicle) mg/ml in osmotic pumps (0.5 ul/hr; equivalent to 25, 16 and 0 mg/kg/day) was administered subcutaneously to murine collagen-induced arthritis model usin ghte B10RIII strain 12 days after the 1st immunization (day 0) of type II collagen. The 33 mg/ml dose by the pump produced a plasma concentration of CA4 of approximately 30 nM on day 3 and 7 as measured by LC/MS. Dexamethasone at 0.2 mg/kg was injected daily subcutaneously as a positive control.

[2] = system: murine collagen-induced arthritis (CIA) model; assay: Murine collagen-induced arthritis (CIA) model; format: in vivo
Experimental: Male 6-8 week old B10RIII (Jackson Labs) mice were immunized at day 0, followed by a booster immunization on day 15.
Clinical scores started on day 16 and continued daily. Mice were sacrificed on day 26. Clinical scores of mouse paws were based on a 0-5 scoring system with 0 being normal and 5 being the most severe edema and erythema conditions. ELISAs on collected plasma samples were performed using commercial kits: IL-1β (R & D systems, Minneapolis, Minn.), anti-collagen II (Chondrex, Redmont, Wash.), and Rheumatoid Factors (IgG) (Alpha Diagnostic International, San Antonio, Tex.).
as §1, with “The 33 mg/ml dose by the pump produced a plasma concentration of CA4 of approximately 30 nM on day 3 and 7 as measured by LC/MS.” left out

[3] = Kirwan et al. 2004; cited from earlier work
OSM signaling = assay: OSM-responsive SW1353 Sentinel cell line luciferase reporter; format: cell-based, human; details: FIG. 12C, listed as CA4
Excerpt: Taken together, it appears that CA4 interferes as well with OSM signal transduction that led to the synergistic upregulation of pro-MMP-13 by OSM/IL-1 in SW1353 cells.

MMP-13 = assay: IL-1-stimulated pro-MMP-13 production in SW1353 cells (ELISA); format: cell-based; details: Homo sapiens, IL-1 alone
Experimental: For matrix metalloproteinase (MMP) measures, SW1353 cells were grown to confluence in 24 well plates, washed in DMEM (with Ham's F12) and placed in 500 ul of serum free DMEM/F-12 with 0.2% lactalbumin hydrosylate with and without OsM/IL-1. After 24 hrs, supernatants were collected and the amounts of proMMP13, totalMMP2, and proMMP1 were measured using Quantikine® ELISA kit for human MMPs (R & D systems, Minneapolis, Minn.). All MMP measures were normalized to viable cell numbers based on a tetrazolium (MTS) colorimetric measure (Promega, Madison, Wis.).
The human chondrosarcoma cell line, SW1353, was used as the cell system for examining CA4's effect on OSM- and IL-1-mediated signal transduction. […] Therefore, MMP-13 was used as a surrogate marker of CA4 effects on OSM and IL-1 signaling in SW1353 cells. […] This observation is in agreement with that obtained with the 4A1 Sentinel® reporter line.

## COc1ccc(/C=C\c2cc(OC)c(OC)c(OC)c2)cc1O [Combretastatin A4 (1), (Z)-5-(3,4,5-trimethoxystyryl)-2-methoxyphenol]
MMP-13 mRNA
  OSM/IL-1-induced MMP-13 mRNA levels: represses OSM/IL-1-induced MMP-13 mRNA levels
CD3
  effect on CD3-mediated increase of GFP fluorescence: did not have any effect
[1]
  plasma concentration: approximately 30 nM
[2]; 16 mg/kg/day by osmotic pumps
  knee joint histopathology: intermediate joint histopathological damages
[2]; 16 mg/kg/day group, by day 22
  survival: All of the mice in the 16 mg/kg/day group survived
[2]; 25 mg/kg/day by osmotic pumps
  knee joint histopathology: only minimal synovitis, minimal proteoglycan and cartilage loss, few infiltrated inflammatory cells, and no panus formation or bone resorption
[2]; 25 mg/kg/day group, by day 22
  mice died: Eight of 15
[2]; 25 and 16 mg/kg/day s.c. osmotic pumps vs vehicle, day 15-22, listed as CA4
  arthritis incidence rate: dose-dependently reduced the arthritis incidence rate
[2]; 25 and 16 mg/kg/day s.c. osmotic pumps, listed as CA4
  macroscopic arthritis clinical scores of the paws: reduced the symptomatic macroscopic scores of the paws; also recorded: significantly reduced macroscopic arthritis clinical scores
[2]; CA4 treatment by osmotic pumps, FIG. 15C
  body weight: without dramatically affecting body weight
[2]; both CA4-treated groups (25, 16 mg/kg/day), ELISA
  reduction of plasma IL-1β levels: more than 50%
[2]; both doses of CA4 (25, 16 mg/kg/day), plasma ELISA
  titers of Rheumatoid Factors: improved significantly to lower levels
[2]; higher dose of CA4 (25 mg/kg/day), plasma ELISA
  anti-type II collagen antibody titer: significantly, albeit modestly, reduced
[3]
  half time in mouse plasma: approximately 0.5 hour
OSM signaling
  OSM-induced reporter luciferase activity: dose-dependently inhibited the reporter luciferase activity
MMP-13
  IC50: 5.2 ± 1.9 nM
